Experimental data as given in PMC5445473, “Identification of Enterococcus faecalis enzymes with azoreductases and/or nitroreductase activity” (BMC Microbiology, 2017).

Columns and labels:
Assay in all cases: LC-ESI-MS of natively purified enzyme; activity of apo-enzyme restored by FMN
Type in all cases: binding
Details in all cases: native purification; apo-enzyme assay with 5 uM FMN, pH 7, 35 °C
AzoA = biological target: T1, AzoA (Enterococcus faecalis, UniProt Q831B2)
T1 construct: gene azoR; E. coli XL1Blue; about 25 kDa; forward primer starts after the initiator Met

EF0648 = biological target: T2, EF0648 (Enterococcus faecalis, UniProt Q838C2)
T2 construct: gene EF_0648; E. coli XL1Blue; about 25 kDa
T2 sequence (Q838C2 2-205): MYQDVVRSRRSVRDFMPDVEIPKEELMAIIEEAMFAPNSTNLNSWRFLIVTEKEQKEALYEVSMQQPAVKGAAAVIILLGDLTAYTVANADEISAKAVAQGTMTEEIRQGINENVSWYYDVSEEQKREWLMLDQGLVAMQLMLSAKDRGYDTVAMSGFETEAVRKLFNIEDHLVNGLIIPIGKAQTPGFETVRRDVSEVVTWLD

EF0655 = biological target: T3, EF0655 (Enterococcus faecalis, UniProt Q838B7)
T3 construct: gene EF_0655; E. coli XL1Blue; about 22 kDa; forward primer starts after the initiator Met
T3 sequence (Q838B7 2-198): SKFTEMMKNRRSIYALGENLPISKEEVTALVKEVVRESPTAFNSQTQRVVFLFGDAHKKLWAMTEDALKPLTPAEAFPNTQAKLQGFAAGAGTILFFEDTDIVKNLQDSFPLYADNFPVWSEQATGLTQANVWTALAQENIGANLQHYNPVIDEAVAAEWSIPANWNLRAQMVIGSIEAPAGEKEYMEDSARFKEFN

EF1181 = biological target: T4, EF1181 (Enterococcus faecalis, UniProt Q836D4)
T4 construct: gene EF_1181; E. coli XL1Blue; about 30 kDa; forward primer starts after the initiator Met
T4 sequence (Q836D4 2-244): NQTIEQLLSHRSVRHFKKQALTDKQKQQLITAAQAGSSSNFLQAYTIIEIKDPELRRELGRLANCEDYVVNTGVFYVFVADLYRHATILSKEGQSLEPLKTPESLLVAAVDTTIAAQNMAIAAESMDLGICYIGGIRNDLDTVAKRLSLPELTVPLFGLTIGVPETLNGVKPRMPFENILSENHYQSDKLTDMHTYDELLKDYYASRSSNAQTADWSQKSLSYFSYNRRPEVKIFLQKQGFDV

EF0404 = biological target: T5, EF0404 (Enterococcus faecalis, UniProt Q838N5)
T5 construct: gene EF_0404; E. coli XL1Blue; about 25 kDa; forward primer starts after the initiator Met
T5 sequence (Q838N5 2-211): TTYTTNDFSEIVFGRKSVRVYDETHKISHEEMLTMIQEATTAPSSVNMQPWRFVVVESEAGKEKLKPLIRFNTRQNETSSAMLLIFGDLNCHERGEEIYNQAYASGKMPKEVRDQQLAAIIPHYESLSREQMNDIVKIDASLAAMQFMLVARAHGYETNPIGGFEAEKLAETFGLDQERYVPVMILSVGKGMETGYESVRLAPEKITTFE

T1 sequence (Q831B2 2-208): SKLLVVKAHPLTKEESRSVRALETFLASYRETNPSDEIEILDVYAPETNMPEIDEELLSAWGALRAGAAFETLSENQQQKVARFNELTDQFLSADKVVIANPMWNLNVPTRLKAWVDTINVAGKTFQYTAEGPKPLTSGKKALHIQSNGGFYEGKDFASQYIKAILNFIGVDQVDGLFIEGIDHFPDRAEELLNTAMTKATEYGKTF

Cc1cc2nc3c(=O)[nH]c(=O)nc-3n(C[C@H](O)[C@H](O)[C@H](O)COP(=O)(O)O)c2cc1C [FMN]
LC-ESI-MS of natively purified enzyme; activity of apo-enzyme restored by FMN (AzoA): confirmed FMN presence for the enzymes purified using native conditions
LC-ESI-MS of natively purified enzyme; activity of apo-enzyme restored by FMN (EF0648): confirmed FMN presence for the enzymes purified using native conditions
LC-ESI-MS of natively purified enzyme; activity of apo-enzyme restored by FMN (EF0655): confirmed FMN presence for the enzymes purified using native conditions
LC-ESI-MS of natively purified enzyme; activity of apo-enzyme restored by FMN (EF1181): confirmed FMN presence for the enzymes purified using native conditions
LC-ESI-MS of natively purified enzyme; activity of apo-enzyme restored by FMN (EF0404): confirmed FMN presence for the enzymes purified using native conditions
